Test results reported in article PMC11409709, “Inhibition of DRP-1 mitochondrial mitophagy and fission by novel α-aminophosphonates bearing pyridine: synthesis, biological evaluations, and computer-aided design” (BMC Chemistry, 2024).
Entries after “also recorded” stand apart in the source; their conditions may differ. Like-named read-outs stand apart in the source and are kept apart here.

Experiments:
[1] = system: bacterial and fungal strains; test: Disc diffusion, whole panel (result in words); type: cell-based; settings: 1 mg/mL
Method: (§1) The produced compounds’ antimicrobial activity was evaluated using a panel of two gram-positive bacteria (Bacillus subtilis (#MTCC NO 441) and Staphylococcus aureus (#MTCC NO 96). as well as two Gram-negative bacteria (Pseudomonas aeruginosa (#MTCC NO 1688), Escherichia coli(#MTCC NO 452)). Two fungi [Candida albicans(#MTCC NO 183) and Aspergillus flavus(#MTCC NO 1344)] were used to assess the compounds' anti-fungal properties. Paper discs of Whatman filter paper with a standard size of […] were made, dissolved in DMSO, and then sterilized in an autoclave. A solution of 1 mg/mL was prepared for each drug separately. Paper discs soaked in the desired concentration of the complex solution were aseptically placed in Petri dishes containing nutrient agar media (20 g + 3 g of beef extract + 5 g of peptone) seeded with bacterial and fungal strains. After 24 h of incubation at 36 °C, the inhibitory zones in the petri dishes were measured. There were three copies of every treatment. Using the same protocol as previously described, the antifungal Clotrimazole and the common standard antibiotic Ciprofloxacin were also tested for antibacterial activity at the same concentrations and solvent combinations.

[2] = system: colorectal adenocarcinoma (Caco-2); test: MTT assay, Caco-2; type: cell-based, human; settings: for IC50: Homo sapiens, Caco-2, 48 h, read-out: Anti-cancer activity CaCo-2 (IC50), MTT, 48 h; for antitumor impact on Caco-2: MTT, 48 h, compared with DOX
Text: (§2) Mammary gland (MCF-7;# ATCC HTB-22), colorectal adenocarcinoma (Caco-2; # ATCC HTB-37), hepatocellular carcinoma (HepG-2; #ATCC HB-8065), and human lung fibroblast (WI-38; # ATCC CCL-75). The ATCC cell line was obtained via the Holding Company for Biological Products and Vaccines (VACSERA), Cairo, Egypt.
(§3) The MTT test was utilized to ascertain the phosphonate's inhibitory effects on cell growth utilizing the aforementioned cell lines. The basis of this colorimetric assay is the transformation of yellow tetrazolium bromide (MTT) by mitochondrial succinate dehydrogenase in living cells into a purple formazan derivative. 10% fetal bovine serum was added to RPMI-1640 media used to cultivate cell lines. At 37 °C in an incubator with 5% CO2, 100 units/mL of penicillin and 100 µg/mLof streptomycin were introduced as antibiotics. The cell lines were seeded at 1.0 × 10^4 cells/well in a 96-well plate and kept at 37 °C for 24 h with 5% CO2. Following incubation, the cells were subjected to several concentrations of newly synthesized phosphonates and left for 48 h incubation. 20 µL of a 5 mg/mL MTT solution was added and incubated for 4 h after the drug treatment lasted for 48 h. To dissolve the purple formazan produced in each well, 100 µL of dimethyl sulfoxide (DMSO) was applied. Using a plate reader (EXL 800, USA), the colorimetric test is measured and recorded at the absorbance of 570 nm. (A570 of treated samples/A570 of untreated sample) X 100 was used to compute the relative cell viability as a percentage.

[3] = system: hepatocellular carcinoma (HepG-2); test: MTT assay, HepG-2; type: cell-based, human; settings: for antitumor impact on HepG-2: compared with DOX
Text: as §2, §3

[4] = system: human lung fibroblast (WI-38); test: MTT assay, WI-38 normal cells; type: cell-based; settings: 48 h
Text: as §2, §3

[5] = DPPH radical scavenging; settings: for IC50: 0.1 mM DPPH in methanol, 30 min dark, 517 nm
Method: (§4) With slight modifications, the DPPH and ABTS methods were used to test the new phosphonate’s free radical scavenging activity. Briefly, one milliliter of a 0.1 mM DPPH in methanol solution and ABTS in distilled water were added to the newly synthesized compounds. For 30 min, the mixture was left in the dark. The synthetic compounds’ ability to scavenge free radicals was compared to that of L. Ascorbic acid. At 517 nm for DPPH and 734 nm for ABTS, optical density was recorded, and the concentration inhibition was computed.
(§5) The percentage of inhibition is equal to [(A control − A test)/A control] × 100, where A control represents the control absorbance and A test represents the test sample absorbance. It was established what sample concentration (IC50) produced 50% inhibition. Every experiment was conducted in triplicate, and the mean ± SE IC50 values were reported.

[6] = ABTS radical scavenging; settings: for IC50: 30 min dark, 734 nm
Method: as §4, §5

[7] = system: Mammary gland (MCF-7); test: MTT assay, MCF-7; type: cell-based, human; settings: for IC50: Homo sapiens, MCF7, 48 h, read-out: Anti-cancer activity MCF-7 (IC50), MTT, 48 h; for antitumor impact on MCF-7: MTT, 48 h, compared with DOX
Text: as §2, §3

[8] = system: Staphylococcus aureus; test: Disc diffusion, S. aureus; type: cell-based; settings: inhibition zone vs standard drug, 1 mg/mL, 24 h, 36 °C
Method: as §1

[9] = system: Escherichia coli; test: Disc diffusion, E. coli; type: cell-based; settings: inhibition zone vs standard drug, 1 mg/mL, 24 h, 36 °C
Method: as §1

[10] = system: Candida albicans; test: Disc diffusion, C. albicans; type: cell-based; settings: inhibition zone vs standard drug, 1 mg/mL, 24 h, 36 °C
Method: as §1

[11] = system: Bacillus subtilis; test: Disc diffusion, B. subtilis; type: cell-based; settings: inhibition zone vs standard drug, 1 mg/mL, 24 h, 36 °C
Method: as §1

[12] = system: Aspergillus flavus; test: Disc diffusion, A. flavus; type: cell-based; settings: inhibition zone vs standard drug, 1 mg/mL, 24 h, 36 °C
Method: as §1

[13] = system: Pseudomonas aeruginosa; test: Disc diffusion, P. aeruginosa; type: cell-based; settings: inhibition zone vs standard drug, 1 mg/mL, 24 h, 36 °C
Method: as §1

[14] = Homo sapiens, HepG2, 48 h, read-out: Anti-cancer activity HepG-2 (IC50), MTT, 48 h

Row | SMILES | biocidal effect against bacterial and fungal strains [1] | IC50 [2] [µM] | antitumor impact on Caco-2 [2] | IC50 [3, 14] [µM] | cytotoxic effect on WI-38 normal cells [4] | DPPH scavenging [5] | ABTS scavenging [6] | melting point [°C] | antitumor impact on HepG-2 ([3]; MTT, 48 h) | IC50 [7] [µM] | antitumor impact on MCF-7 [7] | further results
1 | CCOP(=O)(OCC)C(Nc1ncc(Cl)cc1Cl)c1ccc(O)c(OC)c1 (stereo not drawn) [Compound 3a, Diethyl(((3,5-dichloropyridin-2-yl)amino)(4-hydroxy-3-methoxyphenyl)methyl)phosphonate] | moderate | 3.3 | low effect | 17.9 ± 1.3 | without any toxic effects | moderate impact | moderate impact | 66 to 68 | – | – | – | –
2 | CCOP(=O)(OCC)C(Nc1ncc(Cl)cc1Cl)c1ccc(O)cc1 (stereo not drawn) [Compound 3b, Diethyl (((3,5-dichloropyridin-2-yl)amino)(4-hydroxyphenyl)methyl)phosphonate] | weak | – | – | 66.8 ± 3.5 | – | weak capacity | weak capacity | 56 to 58 | – | – | – | –
3 | CCOP(=O)(OCC)C(Nc1ncc(Cl)cc1Cl)c1ccccc1OC (stereo not drawn) [Compound 3c, Diethyl (((3,5-dichloropyridin-2-yl)amino)(2-methoxyphenyl)methyl)phosphonate] | moderate | 2.3 | moderate to weak impact | – | – | weak capacity | weak capacity | 73 to 75 | moderate to weak impact | 2.1 | moderate to weak impact | –
4 | CCOP(=O)(OCC)C(Nc1ncc(Cl)cc1Cl)c1c(O)ccc2ccccc12 (stereo not drawn) [Compound 3d, Diethyl (((3,5-dichloropyridin-2-yl)amino)(2-hydroxynaphthalen-1-yl)methyl)phosphonate] | – | – | – | – | no cytotoxic effects; also recorded: without any toxic effects | – | – | 145 to 147 | – | – | – | activity index S. aureus [8]: 62.5%; activity index E. coli [9]: 42.3%; activity index C. albicans [10]: 81.5%; activity index B. subtilis [11]: 52.2%; activity index A. flavus [12]: 72%; IC50 [5]: 20.04 ± 0.14 µM; activity index P. aeruginosa [13]: 60.9%; IC50 [6]: 29.14 ± 0.18 µM
5 | CCOP(=O)(OCC)C(Nc1ncc(Cl)cc1Cl)c1ccc(N(C)C)cc1 (stereo not drawn) [Compound 3e, Diethyl (((3,5-dichloropyridin-2-yl)amino)(4-(dimethylamino)phenyl)methyl)phosphonate] | weak | – | moderate to weak impact | 3.1 | – | weak capacity | weak capacity | 70 to 72 | moderate to weak impact | 3.4 | moderate to weak impact | –
6 | CCOP(=O)(OCC)C(Nc1ncc(Cl)cc1Cl)c1ccsc1 (stereo not drawn) [Compound 3f, Diethyl (((3,5-dichloropyridin-2-yl)amino)(thiophen-3-yl)methyl)phosphonate] | moderate | 1.7 | low effect | – | without any toxic effects | moderate impact | moderate impact | 88 to 90 | – | – | – | –
7 | CCOP(=O)(OCC)C(Nc1ncc(Cl)cc1Cl)c1ccccc1O (stereo not drawn) [Compound 3g, Diethyl (((3,5-dichloropyridin-2-yl)amino)(2-hydroxyphenyl)methyl)phosphonate] | weak | 3 | moderate to weak impact | 2.4 | – | weak capacity | weak capacity | 100 to 102 | moderate to weak impact | 2.6 | moderate to weak impact | –
8 | COc1cccc2c1C(=O)c1c(O)c3c(c(O)c1C2=O)C[C@@](O)(C(=O)CO)C[C@@H]3O[C@H]1C[C@H](N)[C@H](O)[C@H](C)O1 [DOX, reference compound] | – | – | – | – | highly toxic effects | – | – | – | – | – | – | IC50 ([3]; MTT, 48 h, read-out: Anti-cancer activity HepG-2 (IC50)): 6.72 ± 0.5 µM; IC50 [4]: 6.72 ± 0.5 µM
9 | O=C1O[C@H]([C@@H](O)CO)C(O)=C1O [L-Ascorbic acid, reference compound] | – | – | – | – | – | – | – | – | – | – | – | IC50 [5]: 16.81 ± 0.1 µM; IC50 [6]: 29.47 ± 0.17 µM
